Read-outs that look alike come from different tables or passages of the source.
Experiments:
CDK5/p35 = CDK5/p35 (Homo sapiens, UniProt Q00535); assay: Z'-LYTE SelectScreen biochemical kinase assay CDK5/p35
Description: (§1) Thermo Fisher Scientific SelectScreen™ Biochemical Kinase Profiling Service Z′-LYTE™ Screening Protocol and Assay Conditions Assay Theory
(§2) The […] biochemical assay employs a fluorescence-based, coupled-enzyme format and is based on the differential sensitivity of phosphorylated and non-phosphorylated peptides to proteolytic cleavage. The peptide substrate is labeled with two fluorophores—one at each end—that make up a FRET pair. In the primary reaction, the kinase transfers the gamma-phosphate of ATP to a single tyrosine, serine or threonine residue in a synthetic FRET-peptide. In the secondary reaction, a site-specific protease recognizes and cleaves non-phosphorylated FRET-peptides. Phosphorylation of FRET-peptides suppresses cleavage by the Development Reagent. Cleavage disrupts FRET between the donor (i.e., coumarin) and acceptor (i.e., fluorescein) fluorophores on the FRET-peptide, whereas uncleaved, phosphorylated FRET-peptides maintain FRET. A ratiometric method, which calculates the ratio (Emission Ratio=Coumarin emission (445 nm)/Fluorescein emission (520 nm)) of donor emission to acceptor emission after excitation of the donor fluorophore at 400 nm, is used to quantitate reaction progress, as shown in the equation below. A significant benefit of this ratiometric method for quantitating reaction progress is the elimination of well-to-well variations in FRET-peptide concentration and signal intensities. As a result, the assay yields very high Z′-factor values (>0.7) at a low percent phosphorylation. Both cleaved and uncleaved FRET-peptides contribute to the fluorescence signals and therefore to the Emission Ratio. The extent of phosphorylation of the FRET-peptide can be calculated from the Emission Ratio. The Emission Ratio will remain low if the FRET-peptide is phosphorylated (i.e., no kinase inhibition) and will be high if the FRET-peptide is non-phosphorylated (i.e., kinase inhibition).
(§3) The Test Compounds are screened in 1% DMSO (final) in the well. For 10 point titrations, 3-fold serial dilutions are conducted from the starting concentration of the customer's choosing.
(§4) All Peptide/Kinase Mixtures are diluted to a 2× working concentration in the appropriate Kinase Buffer (see section Kinase Specific Assay Conditions for a complete description).
(§5) All ATP Solutions are diluted to a 4× working concentration in Kinase Buffer (50 mM HEPES pH 7.5, 0.01% BRIJ-35, 10 mM MgCl2, 1 mM EGTA). ATP Km apparent is previously determined using a Z″-LYTE assay.
(§6) The Development Reagent is diluted in Development Buffer (see section Kinase-Specific Assay Conditions—Direct and Cascade for a complete description).
(§7) Bar-coded Corning, low volume NBS, black 384-well plate (Corning Cat. #4514) • 1. 100 nL—100× Test Compound in 100% DMSO • 2. 2.4 μL—Kinase buffer • 3. 5 μL—2× Peptide/Kinase Mixture • 4. 2.5 μL—4×ATP Solution • 5. 30—second plate shake • 6. 60—minute Kinase Reaction incubation at room temperature • 7. 5 μL—Development Reagent Solution • 8. 30—second plate shake • 9. 60—minute Development Reaction incubation at room temperature • 10. Read on fluorescence plate reader and analyze the data Z′-LYTE Assay Controls
(§8) SelectScreen Kinase Profiling Service uses XLfit from IDBS. The dose response curve is curve fit to model number 205 (sigmoidal dose-response model).
The 2×CDK5/p35/Ser/Thr 12 mixture is prepared in 50 mM HEPES pH 7.5, 0.01% BRIJ-35, 10 mM MgCl2, 1 mM EGTA. The final 10 μL Kinase Reaction consists of 0.14-1.3 ng CDK5/p35 and 2 μM Ser/Thr 12 in 50 mM HEPES pH 7.5, 0.01% BRIJ-35, 10 mM MgCl2, 1 mM EGTA. After the 1 hour Kinase Reaction incubation, 5 μL of a 1:4096 dilution of Development Reagent A is added.

FGFR2 = FGFR2 (Homo sapiens, UniProt P21802); assay: Z'-LYTE SelectScreen biochemical kinase assay FGFR2
Description: as §1, §2, §3, §4, §5, §6, §7, §8
(§9) The 2×FGFR2/Tyr 04 mixture is prepared in 50 mM HEPES pH 7.5, 0.01% BRIJ-35, 10 mM MgCl2, 4 mM MnCl2, 1 mM EGTA, 2 mM DTT. The final 10 μL Kinase Reaction consists of 0.19-1.99 ng FGFR2 and 2 μM Tyr 04 in 50 mM HEPES pH 7.5, 0.01% BRIJ-35, 10 mM MgCl2, 2 mM MnCl2, 1 mM EGTA, 1 mM DTT. After the 1 hour Kinase Reaction incubation, 5 μL of a 1:64 dilution of Development Reagent B is added.

KDR (VEGFR2) = KDR (VEGFR2) (Homo sapiens, UniProt P35968); assay: Z'-LYTE SelectScreen biochemical kinase assay KDR (VEGFR2)
Description: as §1, §2, §3, §4, §5, §6, §7, §8
The 2×KDR (VEGFR2)/Tyr 01 mixture is prepared in 50 mM HEPES pH 7.5, 0.01% BRIJ-35, 10 mM MgCl2, 1 mM EGTA. The final 10 μL Kinase Reaction consists of 1-30 ng KDR (VEGFR2) and 2 μM Tyr 01 in 50 mM HEPES pH 7.5, 0.01% BRIJ-35, 10 mM MgCl2, 1 mM EGTA. After the 1 hour Kinase Reaction incubation, 5 μL of a 1:256 dilution of Development Reagent B is added.

PDGFRA (PDGFR alpha) = PDGFRA (PDGFR alpha) (Homo sapiens, UniProt P16234); assay: Z'-LYTE SelectScreen biochemical kinase assay PDGFRA (PDGFR alpha)
Description: as §1, §2, §3, §4, §5, §6, §7, §8
as §9, with “2×PDGFRA (PDGFR alpha)/Tyr” for “2×FGFR2/Tyr”, “1.54-22.6” for “0.19-1.99”, “PDGFRA (PDGFR alpha)” for “FGFR2”

[1] = 10 μmolar compound concentration, ATP at Km app, read-out: CDK5/p35 inhibition
[2] = read-out: % Inhibition mean CDK5/p35
[3] = 10 μmolar compound concentration, ATP at Km app, read-out: FGFR2 inhibition
[4] = read-out: % Inhibition mean FGFR2
[5] = 10 μmolar compound concentration, ATP at Km app, read-out: KDR (VEGFR2) inhibition
[6] = read-out: % Inhibition mean KDR (VEGFR2)
[7] = 10 μmolar compound concentration, ATP at Km app, read-out: PDGFRA (PDGFR alpha) inhibition
[8] = read-out: % Inhibition mean PDGFRA (PDGFR alpha)

Sequence of FGFR2 (P21802 22-821): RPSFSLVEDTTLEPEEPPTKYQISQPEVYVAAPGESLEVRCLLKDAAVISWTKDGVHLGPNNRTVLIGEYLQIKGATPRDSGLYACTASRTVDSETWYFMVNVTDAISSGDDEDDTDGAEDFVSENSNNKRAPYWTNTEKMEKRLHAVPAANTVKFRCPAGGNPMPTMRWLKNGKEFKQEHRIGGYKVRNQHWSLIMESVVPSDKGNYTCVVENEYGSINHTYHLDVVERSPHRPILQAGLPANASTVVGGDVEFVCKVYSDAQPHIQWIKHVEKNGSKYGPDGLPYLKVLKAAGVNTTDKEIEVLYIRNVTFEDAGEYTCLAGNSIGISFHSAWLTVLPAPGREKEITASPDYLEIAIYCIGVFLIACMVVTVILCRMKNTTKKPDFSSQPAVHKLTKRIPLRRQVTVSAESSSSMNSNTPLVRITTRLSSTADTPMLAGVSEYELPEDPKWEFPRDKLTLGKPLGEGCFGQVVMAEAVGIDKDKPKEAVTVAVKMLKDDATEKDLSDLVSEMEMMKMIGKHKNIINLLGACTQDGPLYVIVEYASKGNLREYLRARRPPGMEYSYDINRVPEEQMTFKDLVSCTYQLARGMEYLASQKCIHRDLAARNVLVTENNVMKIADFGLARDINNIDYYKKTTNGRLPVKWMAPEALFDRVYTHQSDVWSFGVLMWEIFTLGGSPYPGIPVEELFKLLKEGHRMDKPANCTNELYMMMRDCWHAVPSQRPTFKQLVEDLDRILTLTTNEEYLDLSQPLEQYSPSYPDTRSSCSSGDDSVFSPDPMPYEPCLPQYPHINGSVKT
Sequence of PDGFRA (PDGFR alpha) (P16234 24-1089): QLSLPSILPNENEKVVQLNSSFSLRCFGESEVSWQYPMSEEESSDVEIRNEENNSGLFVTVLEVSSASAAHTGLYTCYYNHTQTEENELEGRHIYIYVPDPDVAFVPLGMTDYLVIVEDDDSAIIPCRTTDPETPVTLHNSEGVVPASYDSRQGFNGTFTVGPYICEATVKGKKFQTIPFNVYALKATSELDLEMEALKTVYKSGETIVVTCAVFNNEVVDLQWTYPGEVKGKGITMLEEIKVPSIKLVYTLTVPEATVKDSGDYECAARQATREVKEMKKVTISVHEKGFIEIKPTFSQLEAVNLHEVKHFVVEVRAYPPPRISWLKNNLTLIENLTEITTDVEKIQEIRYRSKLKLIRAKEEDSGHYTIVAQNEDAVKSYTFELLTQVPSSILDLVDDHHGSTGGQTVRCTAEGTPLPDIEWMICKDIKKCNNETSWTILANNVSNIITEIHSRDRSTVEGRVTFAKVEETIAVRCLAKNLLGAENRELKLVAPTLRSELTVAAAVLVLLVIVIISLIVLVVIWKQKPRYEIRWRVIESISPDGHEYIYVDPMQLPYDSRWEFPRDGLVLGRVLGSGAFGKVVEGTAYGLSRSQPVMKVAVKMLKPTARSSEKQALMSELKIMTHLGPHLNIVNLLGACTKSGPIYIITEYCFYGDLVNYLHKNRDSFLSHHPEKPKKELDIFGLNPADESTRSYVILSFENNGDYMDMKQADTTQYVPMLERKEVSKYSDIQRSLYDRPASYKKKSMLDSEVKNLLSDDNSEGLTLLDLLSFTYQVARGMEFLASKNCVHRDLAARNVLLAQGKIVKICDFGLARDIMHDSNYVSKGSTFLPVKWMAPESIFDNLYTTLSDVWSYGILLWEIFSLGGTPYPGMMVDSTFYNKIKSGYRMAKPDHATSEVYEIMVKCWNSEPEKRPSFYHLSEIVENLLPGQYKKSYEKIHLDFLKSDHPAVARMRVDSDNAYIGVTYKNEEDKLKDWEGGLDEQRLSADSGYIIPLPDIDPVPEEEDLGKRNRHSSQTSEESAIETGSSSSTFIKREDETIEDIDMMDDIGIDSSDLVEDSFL
Sequence of CDK5/p35 (Q00535 whole entry): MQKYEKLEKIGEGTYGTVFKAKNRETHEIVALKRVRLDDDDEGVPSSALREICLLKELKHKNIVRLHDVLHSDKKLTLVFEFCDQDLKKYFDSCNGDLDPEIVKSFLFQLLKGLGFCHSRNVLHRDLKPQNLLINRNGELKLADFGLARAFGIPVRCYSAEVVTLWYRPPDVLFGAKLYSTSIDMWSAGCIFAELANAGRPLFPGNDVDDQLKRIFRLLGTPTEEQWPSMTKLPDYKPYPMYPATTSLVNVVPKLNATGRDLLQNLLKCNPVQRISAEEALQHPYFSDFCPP
Sequence of CDK5/p35 (Q15078 whole entry partner): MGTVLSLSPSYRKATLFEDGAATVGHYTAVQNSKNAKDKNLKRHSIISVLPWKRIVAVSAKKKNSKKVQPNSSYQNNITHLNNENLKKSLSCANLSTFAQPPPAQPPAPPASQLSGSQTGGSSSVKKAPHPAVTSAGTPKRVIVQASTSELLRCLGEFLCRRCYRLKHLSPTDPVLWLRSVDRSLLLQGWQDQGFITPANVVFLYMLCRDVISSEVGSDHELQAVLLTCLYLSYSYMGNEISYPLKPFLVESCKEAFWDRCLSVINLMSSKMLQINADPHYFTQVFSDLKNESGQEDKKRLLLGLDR
Sequence of KDR (VEGFR2) (P35968 20-1356): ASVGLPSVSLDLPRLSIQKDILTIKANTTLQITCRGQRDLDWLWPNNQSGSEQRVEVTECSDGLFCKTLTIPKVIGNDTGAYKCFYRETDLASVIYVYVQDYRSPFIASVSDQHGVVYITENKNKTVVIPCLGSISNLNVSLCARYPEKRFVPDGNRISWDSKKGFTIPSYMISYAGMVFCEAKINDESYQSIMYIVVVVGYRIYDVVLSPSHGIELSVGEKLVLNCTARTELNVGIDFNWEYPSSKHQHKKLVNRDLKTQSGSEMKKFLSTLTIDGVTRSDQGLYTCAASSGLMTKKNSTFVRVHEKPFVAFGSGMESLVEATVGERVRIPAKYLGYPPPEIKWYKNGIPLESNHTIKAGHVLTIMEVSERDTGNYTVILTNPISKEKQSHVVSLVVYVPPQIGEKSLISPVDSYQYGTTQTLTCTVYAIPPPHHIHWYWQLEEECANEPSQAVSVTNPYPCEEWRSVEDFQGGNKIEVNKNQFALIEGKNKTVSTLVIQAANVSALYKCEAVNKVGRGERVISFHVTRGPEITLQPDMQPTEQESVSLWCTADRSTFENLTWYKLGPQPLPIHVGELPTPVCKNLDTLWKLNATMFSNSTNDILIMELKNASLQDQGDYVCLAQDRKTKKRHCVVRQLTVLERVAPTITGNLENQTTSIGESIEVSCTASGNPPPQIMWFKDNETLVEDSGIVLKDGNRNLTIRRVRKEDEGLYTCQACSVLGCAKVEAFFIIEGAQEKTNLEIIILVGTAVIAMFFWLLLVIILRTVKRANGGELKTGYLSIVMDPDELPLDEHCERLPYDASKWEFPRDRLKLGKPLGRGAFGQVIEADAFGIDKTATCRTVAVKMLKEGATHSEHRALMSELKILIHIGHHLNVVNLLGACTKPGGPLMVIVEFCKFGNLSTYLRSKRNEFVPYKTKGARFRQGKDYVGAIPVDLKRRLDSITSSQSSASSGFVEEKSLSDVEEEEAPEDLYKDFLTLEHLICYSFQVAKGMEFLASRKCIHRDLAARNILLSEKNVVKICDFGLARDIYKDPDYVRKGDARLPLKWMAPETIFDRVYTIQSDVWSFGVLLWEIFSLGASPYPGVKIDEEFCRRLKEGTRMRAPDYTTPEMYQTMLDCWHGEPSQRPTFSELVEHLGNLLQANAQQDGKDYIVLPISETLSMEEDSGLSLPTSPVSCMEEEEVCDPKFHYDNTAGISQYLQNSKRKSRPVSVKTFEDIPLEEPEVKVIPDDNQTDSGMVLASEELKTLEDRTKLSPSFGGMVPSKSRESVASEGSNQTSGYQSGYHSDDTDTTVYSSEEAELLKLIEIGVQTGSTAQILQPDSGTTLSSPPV

Compound | inhibition at 10 µM (CDK5/p35; [1]) | inhibition at 10 µM (CDK5/p35; [2]) | inhibition at 10 µM (FGFR2; [3]) | inhibition at 10 µM (FGFR2; [4]) | inhibition at 10 µM (KDR (VEGFR2); [5]) | inhibition at 10 µM (KDR (VEGFR2); [6]) | inhibition at 10 µM (PDGFRA (PDGFR alpha); [7]) | inhibition at 10 µM (PDGFRA (PDGFR alpha); [8]) | inhibition at 10 µM (CDK5/p35; read-out: % Inhibition mean) | inhibition at 10 µM (FGFR2; read-out: % Inhibition mean) | inhibition at 10 µM (KDR (VEGFR2); read-out: % Inhibition mean) | inhibition at 10 µM (PDGFRA (PDGFR alpha); read-out: % Inhibition mean)
CCn1ncc2c1CCC(Nc1nc3c(-c4ccc(F)cc4)cccn3n1)C2 (stereo not shown) [Example 55, (1-Ethyl-4,5,6,7-tetrahydro-1H-indazol-5-yl)-[8-(4-fluoro-phenyl)-[1,2,4]triazolo[1,5-a]pyridine-2-yl]-amine] | < 40% | 13% | < 40% | 13% | < 40% | 12% | < 40% | 16% | – | – | – | –
CCn1ncc2c1CCC(Nc1nc3c(-c4ccc(C)nc4)cccn3n1)C2 (stereo not shown) [Example 67, (1-Ethyl-4,5,6,7-tetrahydro-1H-indazol-5-yl)-[8-(6-methyl-pyridin-3-yl)-[1,2,4]triazolo[1,5-a]pyridine-2-yl]-amine] | < 40% | 35% | < 40% | 30% | < 40% | 15% | < 40% | 20% | – | – | – | –
CC1(C)C(=O)Nc2ccc(Nc3nc4c(-c5cccc(F)c5)cccn4n3)cc21 [Cpd. 263 in WO09155551, reference compound] | > 80% | – | > 80% | – | > 80% | – | > 80% | – | 83% | 102% | 99% | 86%
CCn1ncc2c1CCC(Nc1nc3c(-c4cccnc4OC)cccn3n1)C2 (stereo not shown) [Example 69, (1-Ethyl-4,5,6,7-tetrahydro-1H-indazol-5-yl)-[8-(2-methoxy-pyridin-3-yl)-[1,2,4]triazolo[1,5-a]pyridine-2-yl]-amine] | < 40% | 28% | < 40% | 1% | < 40% | 8% | < 40% | 17% | – | – | – | –
CCn1ncc2c1CCC(Nc1nc3c(-c4cncc(Cl)c4)cccn3n1)C2 (stereo not shown) [Example 73, [8-(5-Chloro-pyridin-3-yl)-[1,2,4]triazolo[1,5-a]pyridine-2-yl]-(1-ethyl-4,5,6,7-tetrahydro-1H-indazol-5-yl)-amine] | 40 to 80% | 56% | < 40% | 26% | < 40% | 8% | < 40% | 23% | – | – | – | –
CC1(C)NC(=O)c2ccc(Nc3nc4c(-c5cccc(F)c5)cccn4n3)cc21 [Cpd. 302 in WO09155551, reference compound] | > 80% | – | > 80% | – | > 80% | – | > 80% | – | 88% | 98% | 101% | 89%

The next lines start with the values.

inhibition at 10 µM (CDK5/p35; [1]) | inhibition at 10 µM (CDK5/p35; [2]) | inhibition at 10 µM (FGFR2; [3]) | inhibition at 10 µM (FGFR2; [4]) | inhibition at 10 µM (KDR (VEGFR2); [5]) | inhibition at 10 µM (KDR (VEGFR2); [6]) | inhibition at 10 µM (PDGFRA (PDGFR alpha); [7]) | inhibition at 10 µM (PDGFRA (PDGFR alpha); [8]) | inhibition at 10 µM (CDK5/p35; read-out: % Inhibition mean) | inhibition at 10 µM (FGFR2; read-out: % Inhibition mean) | inhibition at 10 µM (KDR (VEGFR2); read-out: % Inhibition mean) | inhibition at 10 µM (PDGFRA (PDGFR alpha); read-out: % Inhibition mean) | Compound
40 to 80% | 61% | < 40% | 17% | < 40% | -10% | < 40% | 5% | – | – | – | – | Cc1cc(F)ccc1-c1cccn2nc(NC3CCc4cnn(C)c4C3)nc12 (stereo not shown) [Example 40, [8-(4-Fluoro-2-methyl-phenyl)-[1,2,4]triazolo[1,5-a]pyridine-2-yl]-(1-methyl-4,5,6,7-tetrahydro-1H-indazol-6-yl)-amine]
40 to 80% | 52% | < 40% | 19% | < 40% | 6% | < 40% | 21% | – | – | – | – | CCn1ncc2c1CCC(Nc1nc3c(-c4ccccc4C)cccn3n1)C2 (stereo not shown) [Example 56, (1-Ethyl-4,5,6,7-tetrahydro-1H-indazol-5-yl)-[8-(2-methyl-phenyl)-[1,2,4]triazolo[1,5-a]pyridine-2-yl]-amine]
< 40% | 38% | < 40% | 22% | < 40% | 2% | < 40% | 19% | – | – | – | – | CCn1nc(Cl)c2c1CCC(Nc1nc3c(-c4ccc(F)cc4C)cccn3n1)C2 (stereo not shown) [Example 48, (3-Chloro-1-ethyl-4,5,6,7-tetrahydro-1H-indazol-5-yl)-[8-(4-fluoro-2-methyl-phenyl)-[1,2,4]triazolo[1,5-a]pyridine-2-yl]-amine]
< 40% | 25% | < 40% | 22% | < 40% | 3% | < 40% | 5% | – | – | – | – | Cc1cc(F)ccc1-c1cccn2nc(NC3CCc4c(cnn4C(C)C)C3)nc12 (stereo not shown) [Example 44, [8-(4-fluoro-2-methyl-phenyl)-[1,2,4]triazolo[1,5-a]pyridine-2-yl]-(1-isopropyl-4,5,6,7-tetrahydro-1H-indazol-5-yl)-amine]
< 40% | 23% | < 40% | 28% | < 40% | -10% | < 40% | 14% | – | – | – | – | CCn1nnc2c1CCC(Nc1nc3c(-c4ccc(F)cc4C)cccn3n1)C2 (stereo not shown) [Example 51, (1-Ethyl-4,5,6,7-tetrahydro-1H-benzotriazol-5-yl)-[8-(4-fluoro-2-methyl-phenyl)-[1,2,4]triazolo[1,5-a]pyridine-2-yl]-amine]

From US11339161B2, “Triazolo pyridines as modulators of gamma-secretase” (Boehringer Ingelheim International GmbH, priority 2017, dated 2022)
